Patent publication US20070161665A1, “Cancer treatment method” (priority 2003, published 2007)
Where a name gives a salt, the structure may show the parent alone. Read-outs that look alike come from different tables or passages of the source.

Experiments:
[1] = system: HN5 cells; test: Roche Cell Death ELISAPlus apoptosis assay in HN5 cells (median effect and sensitization ratio analysis); type: cell-based
Description: HN5 cells are LICR-LON-HN5 head and neck carcinoma cells, which were a gift from the Institute of Cancer Research, Surrey, U.K.
(§1) Cell lines were grown in RPMI-1640 supplemented with 25 mM HEPES, 10 mM glutamine and 10% fetal bovine serum and maintained at 37° C. and 5% CO2 in a humid incubator. Assays were performed in 96 well microtiter plates with optimum seeding densities for each cell line.
(§2) Apoptosis was measured using the Roche Cell Death ELISA^Plus kit (catalog 1 774 425) which detects fragmented nucleosomal DNA that is generated during apoptosis.
Synergistic interaction between compounds was analyzed by the median effect method described by Chou and Talalay (Adv. Enzyme Regul. 22: 27-55, 1984). Briefly, if the two compounds fit the mutually exclusive model of Chou, one calculates the combination index (CI) using the formula CI=((D)1/(Dx)1)+((D)2/(Dx)2) (1) where (D)1 is the concentration of drug 1 in the combination that gives “x” percent apoptosis, (D)2 is the same for drug 2, and (Dx)1 and (Dx)2 are the concentrations of drug 1 or 2 that give “x” percent apoptosis when used alone. (D)1 and (D)2 are known from the composition of the combination and (Dx)1 and (Dx)2 can be calculated from the equation Dx=Dm*[fa/(1−fa)]^1/m (2) where Dm is the concentration of drug giving 50% effect, fa is the fraction affected, and m is the slope from the median effect plot of log (fa/fu) where fu is the fraction unaffected versus log (D). A CI less than 1 indicates synergy, equal to 1 indicates additivity and greater than 1 antagonism.
(§3) Sensitization is measured as the ratio between observed and expected apoptosis or caspase activation from a combination of AKT kinase inhibitor and EGFR/erb inhibitor. The expected level of activity (Ae) is calculated by Ae=1−((1−A1)*(1−A2)) (3) where A1 and A2 are the activities of drugs 1 and 2 alone at the concentration used in the combination (Harvey, R. J., J. Theor. Biol. 74: 411-437, 1978).

[2] = target: AKT1 (Homo sapiens, UniProt P31749); test: Inhibition of AKT isoforms, enzyme IC50; type: biochemical
Sequence of AKT1 (P31749 whole entry, species assumed, canonical isoform): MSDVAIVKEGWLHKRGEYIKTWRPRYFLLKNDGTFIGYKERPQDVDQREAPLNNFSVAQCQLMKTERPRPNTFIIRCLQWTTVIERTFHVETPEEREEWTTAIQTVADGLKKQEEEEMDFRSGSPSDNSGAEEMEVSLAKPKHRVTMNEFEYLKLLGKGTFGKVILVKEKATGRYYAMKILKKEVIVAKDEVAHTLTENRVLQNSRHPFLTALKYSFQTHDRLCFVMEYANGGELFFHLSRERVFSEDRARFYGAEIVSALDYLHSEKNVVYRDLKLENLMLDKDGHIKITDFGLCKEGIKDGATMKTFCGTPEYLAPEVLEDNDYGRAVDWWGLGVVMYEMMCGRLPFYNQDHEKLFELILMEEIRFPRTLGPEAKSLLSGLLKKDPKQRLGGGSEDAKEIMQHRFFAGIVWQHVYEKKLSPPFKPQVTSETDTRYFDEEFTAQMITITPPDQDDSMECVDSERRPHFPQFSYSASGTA

[3] = target: AKT2 (Homo sapiens, UniProt P31751); test: Inhibition of AKT isoforms, enzyme IC50; type: biochemical
Sequence of AKT2 (P31751 whole entry, species assumed, canonical isoform): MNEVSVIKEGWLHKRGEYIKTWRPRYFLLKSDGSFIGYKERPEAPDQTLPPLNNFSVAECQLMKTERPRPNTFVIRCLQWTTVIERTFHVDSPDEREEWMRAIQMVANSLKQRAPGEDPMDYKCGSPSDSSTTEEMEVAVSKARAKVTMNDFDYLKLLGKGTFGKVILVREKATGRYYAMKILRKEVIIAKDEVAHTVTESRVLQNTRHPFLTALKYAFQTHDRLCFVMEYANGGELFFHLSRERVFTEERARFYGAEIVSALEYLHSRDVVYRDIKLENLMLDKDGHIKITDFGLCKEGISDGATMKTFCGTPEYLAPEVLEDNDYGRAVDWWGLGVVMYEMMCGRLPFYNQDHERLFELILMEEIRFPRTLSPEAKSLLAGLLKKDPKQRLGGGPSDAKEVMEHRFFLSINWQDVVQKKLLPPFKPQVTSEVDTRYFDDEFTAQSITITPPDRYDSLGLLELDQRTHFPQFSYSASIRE

[4] = target: AKT3 (Homo sapiens, UniProt Q9Y243); test: Inhibition of AKT isoforms, enzyme IC50; type: biochemical
Sequence of AKT3 (Q9Y243 whole entry, species assumed, canonical isoform): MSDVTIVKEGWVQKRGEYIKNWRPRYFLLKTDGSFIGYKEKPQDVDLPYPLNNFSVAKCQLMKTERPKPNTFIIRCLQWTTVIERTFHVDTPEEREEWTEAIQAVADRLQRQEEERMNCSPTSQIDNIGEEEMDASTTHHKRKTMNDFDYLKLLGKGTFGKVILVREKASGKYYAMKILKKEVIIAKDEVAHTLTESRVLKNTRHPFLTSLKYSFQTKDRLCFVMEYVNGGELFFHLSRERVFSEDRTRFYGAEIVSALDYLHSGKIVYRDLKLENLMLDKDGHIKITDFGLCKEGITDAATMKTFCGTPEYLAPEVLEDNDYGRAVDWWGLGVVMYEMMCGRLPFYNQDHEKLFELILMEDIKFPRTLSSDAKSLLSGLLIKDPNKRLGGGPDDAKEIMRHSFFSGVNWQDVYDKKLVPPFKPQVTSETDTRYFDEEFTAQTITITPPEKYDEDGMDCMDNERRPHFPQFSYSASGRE

[5] = system: T47D cells; test: Roche Cell Death ELISAPlus apoptosis assay in T47D cells (sensitization ratio); type: cell-based, human; conditions: for Apoptosis (FIG. 6): 10 μM GW572016 or 100 μM LY294002 separately
Description: T47D cells are human breast ductal carcinoma cells originally obtained from the American Type Culture Collection.
as §1, §2
The expected level of activity (Ae) is calculated by Ae=1−((1−A1)*(1−A2)) (3) where A1 and A2 are the activities of drugs 1 and 2 alone at the concentration used in the combination (Harvey, R. J., J. Theor. Biol. 74: 411-437, 1978).
Apoptosis was measured using the Roche Cell Death ELISA^Plus kit, and the relative percentage of apoptosis was determined for each combination.

[6] = system: MDA-MB468 cells; test: Roche Cell Death ELISAPlus apoptosis assay in MDA-MB468 cells (sensitization ratio); type: cell-based, human
Description: MDA-MB468 cells are human breast adenocarcinoma cells originally obtained from the American Type Culture Collection.
as §1, §2, §3
MDA-MB468 cells were incubated with varied concentrations of GW583340 for 24 h followed by an additional 4 h incubation with varied concentrations of LY294002. Apoptosis was measured using the Roche Cell Death ELISA^Plus kit, and the relative percentage of apoptosis was determined for each combination. When 1, 2, or 5 μM GW583340 were combined with 100 μM LY294002, SR values 3.4, 4.2 and 5.0, respectively, indicated significant synergism. At lower concentrations of LY294002, lesser degrees of synergism were observed.

[7] = HN5, 24 h; concentration of the named drug within the 1:2 GW589522:LY294002 combo at Dm; read-out: Dm, drug in combo
[8] = HN5, 24 h; concentration of the named drug within the 1:10 GW589522:LY294002 combo at Dm; read-out: Dm, drug in combo
[9] = Homo sapiens, HN5, 24 h; drug alone (Table 3); concentration giving 50% effect; read-out: Dm
[10] = HN5, 24 h; concentration of the named drug within the 1:2 GW572016:LY294002 combo at Dm; read-out: Dm, drug in combo
[11] = HN5, 24 h; concentration of the named drug within the 1:10 GW572016:LY294002 combo at Dm; read-out: Dm, drug in combo
[12] = GW572016 0 μM 24 h, then LY294002 20 μM 4 h
[13] = GW572016 0 μM 24 h, then LY294002 50 μM 4 h
[14] = GW572016 0 μM 24 h, then LY294002 100 μM 4 h
[15] = GW583340 0 μM 24 h, then LY294002 4 μM 4 h
[16] = GW583340 0 μM 24 h, then LY294002 10 μM 4 h
[17] = GW583340 0 μM 24 h, then LY294002 20 μM 4 h
[18] = GW583340 0 μM 24 h, then LY294002 50 μM 4 h
[19] = GW583340 0 μM 24 h, then LY294002 100 μM 4 h
[20] = GW583340 1 μM 24 h, then LY294002 0 μM 4 h
[21] = GW583340 2 μM 24 h, then LY294002 0 μM 4 h
[22] = GW583340 5 μM 24 h, then LY294002 0 μM 4 h
[23] = GW572016 2 μM 24 h, then LY294002 0 μM 4 h
[24] = GW572016 5 μM 24 h, then LY294002 0 μM 4 h
[25] = GW572016 10 μM 24 h, then LY294002 0 μM 4 h

CS(=O)(=O)CCNCc1ccc(-c2ccc3ncnc(Nc4ccc(OCc5cccc(F)c5)c(Br)c4)c3c2)o1 [GW589522, (4-(3-Fluoro-benzyloxy)-3-bromophenyl)-(6-(5-((2-methanesulphonyl-ethylamino)-methyl)-furan-2-yl)quinazolin-4-yl)-amine] was tested, and the EC50 [1, 7] was 8600 nM, the EC50 [1, 8] was 4400 nM and the “Net Apoptosis” value ([1]; HN5; GW589522 1.56 μM 24 h, then Ex 9 0 μM 4 h) was −1.0%. The “Net Apoptosis” value ([1]; HN5; GW589522 3.12 μM 24 h, then Ex 9 0 μM 4 h) was 2.5%, the “Net Apoptosis” value ([1]; HN5; GW589522 6.25 μM 24 h, then Ex 9 0 μM 4 h) was 2.5% and the “Net Apoptosis” value ([1]; HN5; GW589522 12.5 μM 24 h, then Ex 9 0 μM 4 h) was 5.1%. It also gave an EC50 [1, 9] of 15900 nM.

For CCn1c(-c2nonc2N)nc2cncc(OC3CCNCC3)c21 [Ex 9 (tri-HCl salt), 4-[1-Ethyl-7-(piperidin-4-yloxy)-1H-imidazo[4,5-c]pyridin-2-yl]-furazan-3-ylamine], the “Sensitization Ratio in HN5 with 5 μM GW589522A” value (“Sensitization Ratio in HN5” for short) ([1]; HN5; 5 μM GW589522A 24 h, then compound 8 μM 4 h) was 10 @ 8, the IC50 [2] was 50 nM and the IC50 [3] was 270 nM. It also gave an IC50 [4] of 190 nM.

CCn1c(-c2nonc2N)nc2cncc(OCC3CCNCC3)c21 [Ex 14, 4-[1-Ethyl-7-(piperidin-4-ylmethoxy)-1H-imidazo[4,5-c]pyridin-2-yl]-furazan-3-ylamine] was tested, and the “Sensitization Ratio in HN5” value ([1]; HN5; 5 μM GW589522A 24 h, then compound 4 h, concentration not given) was 4.5 @, the IC50 [2] was 70 nM and the IC50 [3] was 270 nM. It also gave an IC50 [4] of 510 nM.

For CCn1c(-c2nonc2N)nc2c(-c3ccccc3)ncc(OCCCN)c21.O=C(O)C(F)(F)F [Ex 13, 4-{7-[(3-aminopropyl)oxy]-1-ethyl-4-phenyl-1H-imidazo[4,5-c]pyridin-2-yl}-1,2,5-oxadiazol-3-amine trifluoroacetate], the “Sensitization Ratio in HN5” value ([1]; HN5; 5 μM GW589522A 24 h, then compound 5 μM 4 h) was 12 @ 5, the IC50 [2] was 40 nM and the IC50 [3] was 20 nM. For the same compound, the IC50 [4] was 10 nM.

O=c1cc(N2CCOCC2)oc2c(-c3ccccc3)cccc12 [LY294002, 2-(4-morpholinyl)-8-phenyl-4H-1-benzopyran-4-one, reference compound] was tested, and the EC50 [1, 10] was 14500 nM, the EC50 [1, 7] was 17200 nM and the EC50 [1, 11] was 52900 nM. For the same compound, the EC50 [1, 8] was 44300 nM, the EC50 ([1]; Homo sapiens, HN5, 24 h; drug alone (Table 1); concentration giving 50% effect; read-out: Dm) was 186000 nM and the EC50 [1, 9] was 123000 nM. For the same compound, the “Apoptosis (FIG. 6)” value [5] was “little effect”, the “Net Apoptosis” value [5, 12] was 2.2% and the “Net avg A405 nm” value [5, 12] was 0.041. For the same compound, the “Net Apoptosis” value [5, 13] was 3.6%, the “Net avg A405 nm” value [5, 13] was 0.063 and the “Net Apoptosis” value [5, 14] was 4.5%. The “Net avg A405 nm” value [5, 14] was 0.077, the “Net Apoptosis” value [6, 15] was 4.8% and the “Net avg A405 nm” value [6, 15] was 0.294. For the same compound, the “Net Apoptosis” value [6, 16] was 6.5%, the “Net avg A405 nm” value [6, 16] was 0.314 and the “Net Apoptosis” value [6, 17] was 8.6%. For the same compound, the “Net avg A405 nm” value [6, 17] was 0.338, the “Net Apoptosis” value [6, 18] was 9.0% and the “Net avg A405 nm” value [6, 18] was 0.344. For the same compound, the “Net Apoptosis” value [6, 19] was 13.7% and the “Net avg A405 nm” value [6, 19] was 0.399.

With CCn1c(-c2nonc2N)nc2c(-c3cccc(Cl)c3)ncc(OCCCCN)c21.O=C(O)C(F)(F)F [Ex 12, 4-[7-[(4-aminobutyl)oxy]-4-(3-chlorophenyl)-1-ethyl-1H-imidazo-[4,5-c]pyridin-2-yl]-1,2,5-oxadiazol-3-amine trifluoroacetate] the “Sensitization Ratio in HN5” value ([1]; HN5; 5 μM GW589522A 24 h, then compound 25 μM 4 h) was 3.6 @ 25, the IC50 [2] was 40 nM and the IC50 [3] was 40 nM. For the same compound, the IC50 [4] was 10 nM.

With CS(=O)(=O)CCNCc1nc(-c2ccc3ncnc(Nc4ccc(OCc5cccc(F)c5)c(Cl)c4)c3c2)cs1 [GW583340, (4-(3-Fluoro-benzyloxy)-3-chlorophenyl)-(6-(2-((2-methanesulphonyl-ethylamino)-methyl)-thiazol-4-yl)quinazolin-4-yl)-amine] the “Net Apoptosis” value [6, 20] was 4.8%, the “Net avg A405 nm” value [6, 20] was 0.294 and the “Net Apoptosis” value [6, 21] was 4.2%. The “Net avg A405 nm” value [6, 21] was 0.286, the “Net Apoptosis” value [6, 22] was 7.4% and the “Net avg A405 nm” value [6, 22] was 0.325.

With CCn1c(-c2nonc2N)nc2c(-c3ccccc3)ncc(OCC3CCCNC3)c21.O=C(O)C(F)(F)F (stereo not drawn) [Ex 10, 4-{1-ethyl-4-phenyl-7-[(3-piperidinylmethyl)oxy]-1H-imidazo[4,5-c]pyridin-2-yl}-1,2,5-oxadiazol-3-amine trifluoroacetate] the “Sensitization Ratio in HN5” value ([1]; HN5; 5 μM GW589522A 24 h, then compound 10 μM 4 h) was 3.7 @ 10, the IC50 [2] was 10 nM and the IC50 [3] was 30 nM. For the same compound, the IC50 [4] was 10 nM.

In the case of CS(=O)(=O)CCNCc1ccc(-c2ccc3ncnc(Nc4ccc(OCc5cccc(F)c5)c(Cl)c4)c3c2)o1.Cc1ccc(S(=O)(=O)O)cc1.Cc1ccc(S(=O)(=O)O)cc1.O [GW572016, N-{3-Chloro-4-[(3-fluorobenzyl)oxy]phenyl}-6-[5-({[2-(methanesulphonyl)ethyl]amino}methyl)-2-furyl]-4-quinazolinamine ditosylate monohydrate], the EC50 [1, 10] is reported as 7200 nM, the EC50 [1, 11] is reported as 5300 nM and the “Net Apoptosis” value ([1]; HN5; GW572016 2 μM 24 h, then Ex 9 0 μM 4 h) is reported as −1.0%. For the same compound, the “Net Apoptosis” value ([1]; HN5; GW572016 4 μM 24 h, then Ex 9 0 μM 4 h) was 2.5%, the “Net Apoptosis” value ([1]; HN5; GW572016 10 μM 24 h, then Ex 9 0 μM 4 h) was 5.1% and the EC50 ([1]; Homo sapiens; HN5, 24 h; drug alone (Table 1); concentration giving 50% effect; read-out: Dm) was 10300 nM. For the same compound, the “Apoptosis (FIG. 6)” value [5] was “little effect”, the “Net Apoptosis” value [5, 23] was 0.4% and the “Net avg A405 nm” value [5, 23] was 0.013. For the same compound, the “Net Apoptosis” value [5, 24] was 0.3%, the “Net avg A405 nm” value [5, 24] was 0.013 and the “Net Apoptosis” value [5, 25] was 2.2%. For the same compound, the “Net avg A405 nm” value [5, 25] was 0.042.
